Measured values as given in patent publication US4048430A, “Mercaptopseudotrisaccharides” (SmithKline Corporation, priority 1975, dated 1977).
Values after ≈ are worked out from the molar mass of the structure shown. Read-outs that look alike come from different tables or passages of the source.

Tested on: Pseudomonas aeruginosa
Assay: standard agar inclusion test screen, minimum inhibitory concentration against Pseudomonas
Format: cell-based
Details: read-out: Minimum inhibitory concentrations (MIC)
Description: Compounds of this invention where R, R', R" and Y are hydrogen have antibacterial activity against a variety of bacteria and are especially active against Pseudomonas. Minimum inhibitory concentrations (MIC), as obtained in a standard agar inclusion test screen, range from 25 to 200 μg/ml against Pseudomonas aeruginosa.

[1] = standard agar inclusion test, Pseudomonas (aeruginosa)

| Structure (SMILES) | MIC [1] | MIC (Pseudomonas aeruginosa) |
| --- | --- | --- |
| NC[C@H]1O[C@H](O[C@H]2[C@H](O)[C@@H](O)[C@H](N)C[C@@H]2N)[C@H](N)[C@@H](S)[C@@H]1O [2-deoxy-4-O-(2,6-diamino-3-mercapto-2,3,6-trideoxy-α-D-glucopyranosyl)-D-streptamine] | 63 µg/mL (≈ 186 µM) |  |
| NC[C@H]1O[C@H](O[C@H]2[C@H](O)[C@@H](O)[C@H](N)C[C@@H]2N)[C@H](N)[C@@H](O)[C@@H]1S [2-deoxy-4-O-(2,6-diamino-4-mercapto-2,4,6-trideoxy-α-D-glucopyranosyl)-D-streptamine] | 25 µg/mL (≈ 73.9 µM) |  |
| NC[C@H]1O[C@H](O[C@H]2[C@H](O)[C@@H](O)[C@H](N)C[C@@H]2N)[C@H](N)[C@@H](O)[C@@H]1O [neamine, 2-deoxy-4-O-(2,6-diamino-2,6-dideoxy-α-D-glucopyranosyl)-D-streptamine, reference compound] |  | > 200 µg/mL |
